Assay results: patent publication US20100004333A1, “COMPOSITIONS AND METHODS FOR TREATING CARDIOVASCULAR DISORDERS” (priority 2004, published 2010)
Where two headings read alike, the source gives them in different places.

Tests used:
[1] = system: apoE−/− mice; experiment: Atherosclerosis in apoE−/− mice: probucol versus DTBP versus BP, 5 months; format: in vivo; details: for Atherosclerosis (lesion size) at the arch and descending aorta: 1% probucol, 0.02% BP; for Macrophages lesion area (Mac-3+): FIG. 12a, f; for Plasma cholesterol: FIG. 12c; for Proliferating cells (PCNA+): FIG. 12g; for Aortic content of neutral lipids (cholesterylesters and triglycerides): FIG. 12d
From the text: ApoE−/− mouse model. Four groups of male apoE−/− mice (8-10 weeks, Animal Resources Centre, Perth, Australia) were fed a high fat diet based on Harlan Teklad diet TD88137±1% (wt/wt) probucol (96% purity, a gift from AstraZeneca, Sweden), 0.02% DTBP, or 0.02% BP (Polysciences, Warrington, Pa.) for 5 months. Tissue harvesting and analyses were done as described in Examples 1 and 3, using 15 and 10 mice of each group for biochemical and histological analyses, respectively. Histology and immunohistochemistry. Aortic lesion assessment was carried out at four sites (sinus, arch, thoracic and abdominal aorta) as described in Example 1. Immediately adjacent sections were employed for immunohistochemistry, using Mac-3 (macrophages, dilution 1:200, DAKO), PCNA (cell proliferation, dilution 1:500, DAKO) and anti-rat HO-1 monoclonal antibody (dilution 1:50, Santa Cruz) with avidin-biotin-horseradish peroxidase for signal detection (Vectorstain Elite ABC Kit, Vector Laboratories). Apoptosis was assessed using the TUNEL assay kit (Roche) according to the manufacture's instructions. Digital images were taken for quantitative morphometric analysis. Mac-3^+ areas were determined using Adobe Photoshop V6.0 by tracing. Total cell profiles, TUNEL^+ and PCNA^+ cells were counted manually at high magnification (40× objective). A single operator using coded samples performed all analyses blinded. Heme oxygenase. Heme oxygenase activity was determined in microsomes prepared from homogenized aortic tissue and assessed by HPLC as described in Circulation 2004, 110: 1855-1860. Statistics. All data are expressed as mean±SEM. One-way ANOVA and the student-Newman-Keul's test were used to evaluate differences between groups, with P<0.05 considered significant.

[2] = system: New Zealand White rabbits; experiment: Rabbit aortic balloon-injury model: intimal hyperplasia; format: in vivo; details: for Intimal thickening / intima-to-media ratio after aortic balloon injury: 1% probucol, 0.02% DTBP, 0.02% BP, FIG. 13a, b; for Plasma total cholesterol concentration: rabbits, FIG. 13e
Experimental: (§1) Rabbit aortic balloon-injury model. Four groups of male New Zealand White rabbits (1.8-2.2 kg, Merunga Farm, Coffs Harbour, Australia), matched for body weight and baseline plasma cholesterol, were fed 100 g per day of normal chow±1% probucol, 0.02% DTBP, or 0.02% BP (wt/wt) for up to nine weeks. Aortic balloon-injury (ABI) was carried out at the end of week three, resulting in complete endothelial denudation. Harvesting of aortas was done after a further 6 weeks (n=6 per group). Aortic lesion assessment was carried out at the 3rd pair of lumber arteries in NZW rabbits as described in Circulation 2003, 107:2031-2036. Statistics. Data are expressed as mean±SEM. One-way ANOVA and the student-Newman-Keul's test were used to evaluate differences between groups, with P<0.05 considered significant.
Materials and methods were as described in Examples 6 and 7, with the following addition. DTBP-s and STBP were synthesized as described in Example 10. A total of 48 New Zealand White rabbits (1.8-2.2 kg) were used for this example. Rabbits were fed normal chow (100 g/day) without (Ctrl, n=12) or with 0.02% DTBP (wt/wt, n=6), 0.02% STBP (wt/wt, n=7), 0.02% DTBP-s (wt/wt, n=11) or 0.1% DTBP-s (wt/wt, n=7) for 9 weeks. Aortic balloon-injury was carried out at the end of week three.

[3] = parameters: species or system rabbits; details: rabbit, in vivo
Experimental: as §1
To control for probucol's cholesterol-lowering effect, the animals were matched for baseline plasma cholesterol, and fed them a limited amount (100 g/day) of standard diet±the respective drug.

| SMILES | Atherosclerosis (lesion size) at the arch and descending aorta ([1]; 0.02% DTBP, 5 months, FIG. 12b) | Macrophages lesion area (Mac-3+) ([1]; apoE−/− mice, 5 months) | Plasma cholesterol ([1]; apoE−/− mice, 5 months) | Proliferating cells (PCNA+) ([1]; apoE−/− mice, 5 months) | Intimal thickening / intima-to-media ratio after aortic balloon injury ([2]; 6 weeks after ABI) | Plasma total cholesterol concentration [2] | Total drug in the vessel wall [3] | Lesion size at the aortic root ([1]; 0.02% DTBP, 5 months, FIG. 12b) | HDL-cholesterol ([1]; apoE−/− mice, 0.02% DTBP, 5 months, FIG. 12h) | Aortic content of neutral lipids (cholesterylesters and triglycerides) ([1]; apoE−/− mice, 5 months) | Anti-atherosclerotic activity relative to probucol ([1]; judged from aortic drug concentration and lesion inhibition) | Protection against balloon injury-induced intimal hyperplasia ([2]; 0.02% wt/wt in chow, 9 weeks, ABI at end of week three, FIG. 21) | Vessel content of non-oxidized lipid ([2]; 6 weeks after ABI, FIG. 13c) | Vessel content of oxidized lipid ([2]; 6 weeks after ABI, FIG. 13d) | Protection against balloon injury-induced intimal hyperplasia, dependence on concentration ([2]; I/M ratio 6 weeks after ABI, FIG. 14) | Activity on a molar base relative to probucol ([2]; from relative aortic drug concentrations and in vivo protection) | Total drug in the vessel wall ([3]; male, New Zealand White, 9 weeks) | Bioavailability relative to probucol [3] |
| --- | --- | --- | --- | --- | --- | --- | --- | --- | --- | --- | --- | --- | --- | --- | --- | --- | --- | --- |
| CC(C)(C)c1cc(-c2cc(C(C)(C)C)c(O)c(C(C)(C)C)c2)cc(C(C)(C)C)c1O [BP, 3,3′,5,5′-tetra-tert-butyl-4,4′-bisphenol] | failed | failed to affect | failed | failed to affect | lacked protective activity | significantly reduced | 614±258 pmol total drug per mg protein | – | – | – | – | – | – | – | – | – | – | – |
| CC(C)(C)c1cc(SSc2cc(C(C)(C)C)c(O)c(C(C)(C)C)c2)cc(C(C)(C)C)c1O [DTBP, 4,4′-dithiobis(2,6-di-tert-butyl-phenol)] | significantly inhibited | significant decrease | did not increase medium lesion size at the aortic root (FIG. 12b) or affect plasma cholesterol | significant decrease | significantly decreasing | without effect | – | did not increase | does not lower HDL-cholesterol | decreased | greater anti-atherosclerotic activity than probucol | significant protection | without altering | without altering | in a concentration-dependent manner | more active than probucol | 235±64 pmol total drug per mg protein | greater bioavailability than probucol |
| CC(C)(Sc1cc(C(C)(C)C)c(O)c(C(C)(C)C)c1)Sc1cc(C(C)(C)C)c(O)c(C(C)(C)C)c1 [probucol] | significantly inhibited | significant decrease | – | significant decrease | Inhibit Intimal Thickening | significantly reduced | 663±114 pmol total drug per mg protein | – | – | decreased | – | – | – | – | – | – | – | – |
